# Measured values: ChEMBL document CHEMBL5620374, “Synthesis and bioevaluation of novel stilbene-based derivatives as tubulin/HDAC dual-target inhibitors with potent antitumor activities in vitro and in vivo” (Eur J Med Chem, 2023)
# What was measured:
# H22 = assay: Antitumor activity against mouse H22 cells allografted in ICR mouse assessed as tumor growth inhibition at 20 mg/kg, iv qd for 17 days consecutively relative to control; assay type: functional; settings: time 17 day, read-out: TGI
# K562 = assay: Antiproliferative activity against human K562 cells incubated for 72 hrs by MTT assay; assay type: functional, cell-based; settings: K562, 72 h
# B16-F10 = assay: Antiproliferative activity against mouse B16-F10 cells incubated for 72 hrs by MTT assay; assay type: functional, cell-based; settings: B16-F10, 72 h
# [1] = Antiproliferative activity against human HFL1 cells incubated for 72 hrs by MTT assay; assay type: toxicity, cell-based
# Histone deacetylase 1 = Histone deacetylase 1 (Homo sapiens, UniProt Q13547); assay: Inhibition of HDAC1 derived from human HeLa cell extract using Ac-Leu-Gly-Lys (Ac)-AMC as substrate by fluorescence based assay; assay type: cell-free
# Sequence of Histone deacetylase 1 (Q13547 whole entry): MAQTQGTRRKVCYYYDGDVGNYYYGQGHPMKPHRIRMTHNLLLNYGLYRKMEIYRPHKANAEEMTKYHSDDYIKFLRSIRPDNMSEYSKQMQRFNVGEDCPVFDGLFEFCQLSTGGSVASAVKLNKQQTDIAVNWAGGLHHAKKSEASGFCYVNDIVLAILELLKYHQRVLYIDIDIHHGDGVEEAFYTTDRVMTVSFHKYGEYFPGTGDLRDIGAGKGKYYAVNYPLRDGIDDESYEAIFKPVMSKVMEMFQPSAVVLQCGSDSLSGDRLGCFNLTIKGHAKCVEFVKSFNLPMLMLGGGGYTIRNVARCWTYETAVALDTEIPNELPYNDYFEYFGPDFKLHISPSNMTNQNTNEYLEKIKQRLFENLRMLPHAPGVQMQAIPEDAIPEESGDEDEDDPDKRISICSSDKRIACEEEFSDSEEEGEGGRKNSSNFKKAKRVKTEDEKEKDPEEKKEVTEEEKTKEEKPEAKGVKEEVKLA
# Histone deacetylase 2 = Histone deacetylase 2 (Homo sapiens, UniProt Q92769); assay: Inhibition of HDAC2 derived from human HeLa cell extract using Ac-Leu-Gly-Lys (Ac)-AMC as substrate by fluorescence based assay
# Sequence of Histone deacetylase 2 (Q92769 whole entry): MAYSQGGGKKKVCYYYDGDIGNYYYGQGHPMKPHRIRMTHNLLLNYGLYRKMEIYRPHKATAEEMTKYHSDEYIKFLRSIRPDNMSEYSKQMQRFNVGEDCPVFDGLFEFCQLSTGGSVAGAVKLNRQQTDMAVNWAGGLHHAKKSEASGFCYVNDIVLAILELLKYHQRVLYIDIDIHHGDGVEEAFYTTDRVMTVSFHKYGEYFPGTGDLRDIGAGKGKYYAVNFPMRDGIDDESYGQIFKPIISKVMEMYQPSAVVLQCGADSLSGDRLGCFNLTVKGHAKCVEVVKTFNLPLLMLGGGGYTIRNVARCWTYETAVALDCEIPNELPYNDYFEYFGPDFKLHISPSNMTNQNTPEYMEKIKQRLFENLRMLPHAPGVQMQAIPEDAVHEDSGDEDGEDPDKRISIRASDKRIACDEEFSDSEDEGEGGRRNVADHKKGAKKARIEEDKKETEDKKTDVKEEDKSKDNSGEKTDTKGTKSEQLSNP
# Histone deacetylase 3 = Histone deacetylase 3 (Homo sapiens, UniProt O15379); assay: Inhibition of HDAC3 derived from human HeLa cell extract using Ac-Leu-Gly-Lys (Ac)-AMC as substrate by fluorescence based assay; assay type: cell-free
# Sequence of Histone deacetylase 3 (O15379 whole entry): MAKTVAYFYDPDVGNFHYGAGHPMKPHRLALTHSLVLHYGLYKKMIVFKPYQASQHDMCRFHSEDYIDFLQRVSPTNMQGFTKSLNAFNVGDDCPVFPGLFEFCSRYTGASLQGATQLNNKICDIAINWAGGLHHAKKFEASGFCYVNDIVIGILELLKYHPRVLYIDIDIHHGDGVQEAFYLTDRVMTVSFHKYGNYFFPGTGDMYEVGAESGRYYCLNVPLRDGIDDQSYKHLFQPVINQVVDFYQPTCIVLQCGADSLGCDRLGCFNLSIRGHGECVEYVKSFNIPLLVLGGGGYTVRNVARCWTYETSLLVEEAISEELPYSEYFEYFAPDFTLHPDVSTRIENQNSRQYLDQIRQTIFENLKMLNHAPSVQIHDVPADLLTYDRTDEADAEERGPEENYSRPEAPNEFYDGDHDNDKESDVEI
# [2] = biological target: T1, Protein deacetylase HDAC6 (Homo sapiens, UniProt Q9UBN7); assay: Inhibition of HDAC6 derived from human HeLa cell extract using Ac-Leu-Gly-Lys (Ac)-AMC as substrate by fluorescence based assay; assay type: cell-free
# T1 sequence (Q9UBN7 whole entry): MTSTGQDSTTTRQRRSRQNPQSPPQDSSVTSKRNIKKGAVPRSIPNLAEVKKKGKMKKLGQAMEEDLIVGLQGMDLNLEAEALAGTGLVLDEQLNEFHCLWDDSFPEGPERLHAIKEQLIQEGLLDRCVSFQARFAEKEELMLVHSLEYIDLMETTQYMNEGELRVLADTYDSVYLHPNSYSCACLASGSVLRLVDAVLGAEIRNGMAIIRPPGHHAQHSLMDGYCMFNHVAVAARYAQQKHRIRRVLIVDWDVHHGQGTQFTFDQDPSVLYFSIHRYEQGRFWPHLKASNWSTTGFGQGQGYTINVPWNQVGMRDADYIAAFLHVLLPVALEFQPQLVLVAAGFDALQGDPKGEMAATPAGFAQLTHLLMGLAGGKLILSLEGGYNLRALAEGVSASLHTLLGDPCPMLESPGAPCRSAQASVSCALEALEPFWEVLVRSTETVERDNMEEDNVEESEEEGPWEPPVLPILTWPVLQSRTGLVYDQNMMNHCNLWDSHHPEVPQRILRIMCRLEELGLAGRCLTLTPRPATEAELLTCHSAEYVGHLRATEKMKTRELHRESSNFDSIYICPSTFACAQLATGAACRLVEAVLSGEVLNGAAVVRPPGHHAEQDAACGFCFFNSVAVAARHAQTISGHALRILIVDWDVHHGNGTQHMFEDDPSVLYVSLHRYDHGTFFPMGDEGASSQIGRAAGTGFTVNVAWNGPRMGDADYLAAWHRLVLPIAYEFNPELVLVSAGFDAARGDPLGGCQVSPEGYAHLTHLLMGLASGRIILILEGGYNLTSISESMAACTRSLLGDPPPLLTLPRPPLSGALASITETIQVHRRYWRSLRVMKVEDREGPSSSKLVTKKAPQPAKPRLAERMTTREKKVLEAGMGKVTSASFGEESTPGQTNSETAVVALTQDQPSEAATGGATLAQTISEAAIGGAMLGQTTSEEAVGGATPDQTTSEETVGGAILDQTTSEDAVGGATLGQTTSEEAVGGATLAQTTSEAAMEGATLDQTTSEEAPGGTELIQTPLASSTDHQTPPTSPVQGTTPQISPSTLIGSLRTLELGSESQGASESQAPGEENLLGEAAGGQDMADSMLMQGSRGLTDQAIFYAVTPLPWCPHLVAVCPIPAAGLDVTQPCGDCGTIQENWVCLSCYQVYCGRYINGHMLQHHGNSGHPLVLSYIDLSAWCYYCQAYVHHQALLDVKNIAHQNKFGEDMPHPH
# Histone deacetylase 7 = biological target: T2, Histone deacetylase 7 (Homo sapiens, UniProt Q8WUI4); assay: Inhibition of HDAC7 derived from human HeLa cell extract using Ac-Leu-Gly-Lys (Ac)-AMC as substrate by fluorescence based assay; assay type: cell-free
# T2 sequence (Q8WUI4 whole entry): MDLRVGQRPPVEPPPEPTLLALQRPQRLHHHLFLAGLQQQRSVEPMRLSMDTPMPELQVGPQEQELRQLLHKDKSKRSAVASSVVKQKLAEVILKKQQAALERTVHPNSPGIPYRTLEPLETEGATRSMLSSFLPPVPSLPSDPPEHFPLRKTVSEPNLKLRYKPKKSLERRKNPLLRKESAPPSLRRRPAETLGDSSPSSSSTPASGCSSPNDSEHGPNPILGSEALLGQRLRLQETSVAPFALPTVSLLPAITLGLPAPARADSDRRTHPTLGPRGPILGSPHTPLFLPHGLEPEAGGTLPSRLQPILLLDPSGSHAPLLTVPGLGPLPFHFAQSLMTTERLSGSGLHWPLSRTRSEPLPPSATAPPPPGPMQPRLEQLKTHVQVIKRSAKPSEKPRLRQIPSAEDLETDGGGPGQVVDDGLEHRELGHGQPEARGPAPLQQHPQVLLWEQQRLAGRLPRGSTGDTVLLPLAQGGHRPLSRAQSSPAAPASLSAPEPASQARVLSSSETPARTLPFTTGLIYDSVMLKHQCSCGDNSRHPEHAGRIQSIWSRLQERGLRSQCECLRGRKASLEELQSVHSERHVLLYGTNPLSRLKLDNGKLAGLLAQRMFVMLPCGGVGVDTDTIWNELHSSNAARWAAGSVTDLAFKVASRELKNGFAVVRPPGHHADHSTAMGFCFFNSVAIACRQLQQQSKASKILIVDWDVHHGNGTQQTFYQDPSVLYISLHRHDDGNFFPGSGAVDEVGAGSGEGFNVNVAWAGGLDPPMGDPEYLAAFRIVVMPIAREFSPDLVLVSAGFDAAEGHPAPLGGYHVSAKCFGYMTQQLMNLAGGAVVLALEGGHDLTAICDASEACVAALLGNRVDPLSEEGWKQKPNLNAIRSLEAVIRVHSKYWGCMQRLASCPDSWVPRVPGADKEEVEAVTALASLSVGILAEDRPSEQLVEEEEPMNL
# MCF7 = assay: cells; settings: Homo sapiens, MCF7, 72 h
# Description: Antiproliferative activity against human MCF7 cells incubated for 72 hrs by MTT assay
# MDA-MB-231 = assay: cells; settings: Homo sapiens, MDA-MB-231, 72 h
# Description: Antiproliferative activity against human MDA-MB-231 cells incubated for 72 hrs by MTT assay
# A549 = assay: cells; settings: Homo sapiens, A549, 72 h
# Description: Antiproliferative activity against human A549 cells incubated for 72 hrs by MTT assay
# A2780 = assay: cells; settings: Homo sapiens, A2780, 72 h
# Description: Antiproliferative activity against human A2780 cells incubated for 72 hrs by MTT assay
IC50 (K562) [nM],IC50 (B16-F10) [nM],IC50 (Histone deacetylase 1) [nM],IC50 (Histone deacetylase 2) [nM],IC50 (Histone deacetylase 3) [nM],IC50 [2] [nM],IC50 (Histone deacetylase 7) [nM],IC50 (MCF7) [nM],IC50 (MDA-MB-231) [nM],IC50 (A549) [nM],IC50 (A2780) [nM],SMILES,inhibition in vivo at 20 mg/kg (H22) [%],IC50 at 72 h [1] [nM]
,,,,,,,,,,,C=C(c1ccc(OC)c(O)c1)c1cc(C)nc2ccccc12,64.1,
7,30,1470,2320,8910,4680,> 10000,22,28,15,14,C=C(c1ccc(OC)c(OC(C)C(=O)NO)c1)c1cc(C)nc2ccccc12 (stereo not drawn),,95
